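Interpolation was linear, between the two tested concentrations surrounding the appropriate level; five concentrations were tested over 48 hours in 96-well plates. GI50 is the concentration that inhibits growth by half.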 Calls of active or inactive are those of the source. Cut-off read from the data, not from the text of the source: active = GI50 up to about 1.1 µM and inactive = higher.
Tests used:
Experiment in all cases: NCI-60 cell line screen, 48 h
[1] = test system: MCF7
[2] = test system: DMS-114
[3] = test system: KM-20L2
[4] = test system: LXFL 529
[5] = test system: DLD-1
[6] = test system: BT-549
[7] = test system: DMS-273
[8] = test system: MDA-N
[9] = test system: RXF 631

Compound | GI50 [1] | GI50 [2] | GI50 [3] | GI50 [4] | GI50 [5] | GI50 [6] | GI50 [7] | GI50 [8] | GI50 [9]
COc1cc(C(=O)c2cocc2C(=O)c2ccc3c(c2)OCO3)cc(OC)c1OC | 0.217 µM (active) | 0.753 µM (active) | 0.596 µM (active) | 0.871 µM (active) | 0.867 µM (active) | 0.149 µM (active) | 0.729 µM (active) | 0.0468 µM (active) | –
Nc1c(Br)c(=O)[nH]c(=O)n1COCCO | – | > 100 µM (inactive) | – | > 100 µM (inactive) | > 100 µM (inactive) | – | > 100 µM (inactive) | – | > 100 µM (inactive)
C[n+]1cn(CC(=O)c2ccccc2)c(C(N)=O)c1N | – | 25 µM (inactive) | > 100 µM (inactive) | 61.7 µM (inactive) | > 100 µM (inactive) | – | > 100 µM (inactive) | – | > 100 µM (inactive)
O/N=C1\C(=C\c2ccc3c(c2)OCCO3)CCCC1C(NO)c1ccc2c(c1)OCCO2 (centres undefined) | – | 20.1 µM (inactive) | 19 µM (inactive) | 20.2 µM (inactive) | 31.6 µM (inactive) | – | 19.2 µM (inactive) | – | 32.9 µM (inactive)
N#CC(C(=O)CCCC(=O)Nc1ccccc1[N+](=O)[O-])c1c(Cl)cccc1Cl (centres undefined) | – | > 100 µM (inactive) | > 100 µM (inactive) | > 100 µM (inactive) | > 100 µM (inactive) | – | > 100 µM (inactive) | – | > 100 µM (inactive)
CCCCCC/C=C1\CCC(CN(C)C)C1=O (centres undefined) | 1.86 µM (inactive) | 4.24 µM (inactive) | 8.73 µM (inactive) | 1.99 µM (inactive) | 2.23 µM (inactive) | 18.9 µM (inactive) | 4.15 µM (inactive) | 5.47 µM (inactive) | –
Cc1c(OCCCOc2ccc3c(=O)cc(-c4ccccc4)oc3c2C)ccc2c(=O)cc(-c3ccccc3)oc12 | – | > 100 µM (inactive) | > 100 µM (inactive) | > 100 µM (inactive) | > 100 µM (inactive) | – | > 100 µM (inactive) | – | –
CC1=Nc2c(O)nc(S)nc2NC(c2ccc(Cl)c(Cl)c2)C1 (centres undefined) | – | 35.6 µM (inactive) | 25.6 µM (inactive) | 19.4 µM (inactive) | 31.6 µM (inactive) | – | 26.1 µM (inactive) | – | –
Cc1ccc(S(=O)(=O)O/N=C2\CCC\C2=C/c2ccccc2)cc1 | – | – | 22.1 µM (inactive) | 16.6 µM (inactive) | 19.1 µM (inactive) | – | 32.8 µM (inactive) | – | 16.9 µM (inactive)
O=C(C#Cc1ccccc1)N1c2ccccc2CC1c1c[nH]c2ccccc12 (centres undefined) | – | 12.7 µM (inactive) | 21.9 µM (inactive) | 12.3 µM (inactive) | 2.07 µM (inactive) | – | 12.7 µM (inactive) | – | 14.3 µM (inactive)
COc1ccccc1NC(=O)C1=C(C)NC(C)=C(C(=O)Nc2ccccc2OC)C1c1cccc2c1OCO2 | – | 77.3 µM (inactive) | > 100 µM (inactive) | 69.2 µM (inactive) | > 100 µM (inactive) | – | > 100 µM (inactive) | – | > 100 µM (inactive)
COc1ccc2c3c([nH]c(=O)c2c1C(=O)O)-c1ccccc1CC3 | – | > 100 µM (inactive) | > 100 µM (inactive) | > 100 µM (inactive) | > 100 µM (inactive) | – | > 100 µM (inactive) | – | > 100 µM (inactive)
OCC1CC2CC1C1(C2)OCCO1 (centres undefined) | – | > 100 µM (inactive) | > 100 µM (inactive) | > 100 µM (inactive) | > 100 µM (inactive) | – | > 100 µM (inactive) | – | > 100 µM (inactive)
CC(C)c1ccc(/C=C/c2cc(C(=O)NNC(=O)NC3CCCCC3)nc(S)n2)cc1 | – | > 100 µM (inactive) | > 100 µM (inactive) | > 100 µM (inactive) | > 100 µM (inactive) | – | > 100 µM (inactive) | – | > 100 µM (inactive)
CC1=CC2C(C=C1)S(=O)(=O)N1CC21c1ccccc1 (centres undefined) | – | 21.4 µM (inactive) | > 100 µM (inactive) | > 100 µM (inactive) | > 100 µM (inactive) | – | > 100 µM (inactive) | – | –

Source: ChEMBL document CHEMBL1201862, “PubChem BioAssay data set” (2004)
